In patent publication US11226337B2, “Chemoproteomic profiling of protein electrophilic and oxidative post-translational modifications” (Zenagem, LLC, priority 2017, dated 2022) one finds enrichment ratioavg and competition ratioavg data, which are given here for two compounds.

Each structure is given as a SMILES string.

Assay in all cases: SILAC RP-ABPP
What all share (type): cell-based

In test [1] the target is T1, AMD1 S-adenosylmethionine decarboxylase (P17707) (Homo sapiens, UniProt P17707).
T1 construct: shared by both the endogenous and recombinant forms of these proteins; endogenous in cells; host or cells: HEK293T and MDA-MB-231
T1 sequence (P17707 68-334 limits assumed): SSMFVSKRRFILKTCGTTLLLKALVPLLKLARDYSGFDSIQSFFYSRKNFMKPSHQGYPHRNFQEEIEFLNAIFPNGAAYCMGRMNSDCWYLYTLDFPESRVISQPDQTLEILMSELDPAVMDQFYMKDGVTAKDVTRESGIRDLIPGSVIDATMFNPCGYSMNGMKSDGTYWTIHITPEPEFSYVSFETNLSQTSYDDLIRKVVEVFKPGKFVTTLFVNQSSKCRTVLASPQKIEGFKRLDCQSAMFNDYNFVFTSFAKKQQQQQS
T1 sequence (P17707 1-67 limits assumed): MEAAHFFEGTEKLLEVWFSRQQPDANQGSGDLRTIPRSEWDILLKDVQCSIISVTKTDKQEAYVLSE
The conditions noted are these: SILAC H/L, HEK293T. The protocol: (§1) Modifications to this protocol included using isotopically ‘light’ and ‘heavy’ SILAC cells that were also grown to near complete confluence prior to treatment. Isotopically light cells were treated with the non-clickable hydrazine probe (at the same concentration as the probe in ‘enrichment’ experiments) or the probe in the presence of 10-fold excess non-clickable hydrazine probe as a competitor (in ‘competition’ experiments). Isotopically heavy cells were treated with the probe for both types of experiments. These treatments were performed in non-SILAC media. Following treatments, cells were washed with cold PBS to remove the probe-containing media, harvested by scraping, collected by centrifugation (1,400 g, 3 min, 4° C.), washed again by resuspension in cold PBS and frozen as pellets at −80° C. until use.
(§2) The fractionated equimolar mixture of heavy and light soluble proteomes (1-1.5 mg) was diluted to 1 mL in PBS. Click reactions were scaled accordingly (except for biotin-azide) to maintain final concentrations of 0.1 mM TBTA, 1 mM CuSO4, 100 μM biotin-azide (10 mM in DMSO) and 1 mM TCEP. The mixture was vortexed and placed on a rotator at ambient temperature for 1 hour. Sequential addition of and mixture with pre-chilled methanol (MeOH, 2 mL), chloroform (CHCl3, 0.5 mL) and PBS (1 mL) on ice quenched the reaction. The precipitated proteome was centrifuged (5,000 g, 10 min, 4° C.) to fractionate the protein interphase from the organic and aqueous solvent layers. The protein pellet was washed with cold 1:1 MeOH:CHCl3 (3×1 mL), mildly sonicated in cold 4:1 MeOH:CHCl3 (2.5 mL) and pelleted once more by centrifugation (5,000 g, 10 min, 4° C.) to ensure click reagents were efficiently removed.
(§3) Heavy and light parent ion chromatograms associated with successfully identified peptides were extracted and compared using CIMAGE software as previously described^69. At least one ion of a co-eluting heavy-light pair must be accurately identified from a fragmentation event that occurred within the retention time window (±10 min) of parent ion elution. To ensure that the correct pair of peaks is quantified, chromatograms are extracted within a 10 ppm error tolerance of the predicted m/z, the signal-to-noise ratio must be >2.5 and the ‘co-elution correlation score’ and ‘envelope correlation score’ must have R^2 values ≥0.8. In addition, peptides detected as ‘singletons,’ where only the heavy ion of a peptide pair was identified, but for which passed all other filtering parameters, are given a default assigned ratio of ‘20,’ which is defined as any measured ratio that is ≥20.
(§4) To further eliminate false positives and any stochastic variability in the data, protein ratios were then determined by the median peptide ratio derived from three or more unique quantified peptides. Protein ratios that complied with these criteria from a single experiment were then averaged with ratios acquired from ≥3 replicates to provide final values for each type of experiment in both cell lines with both probes. […] Probe targets in HEK293T and MDA-MB-231 cells represent data combined from ≥3 independent biological replicates with each cell type performed with several independent batches of synthesized probes over a period of almost two years.
(§5) Two types of experiments were performed—1) direct enrichment of probe 1-labelled proteins from heavy cells in comparison to light control cells treated with the non-clickable hydrazine (3) at the same concentration as 1 (3 mM for 0.5 h); and 2) competition experiments where both heavy and light cells were treated probe 1, but light cells were also treated with 10× competitor 3 (FIG. 3A)—in two different human cell lines (HEK293T cells and the human breast cancer cell line MDA-MB-231).

Another test deals with T2, LGMN Legumain (Q99538) (Homo sapiens, UniProt Q99538).
T2 construct: shared by both the endogenous and recombinant forms of these proteins; endogenous in cells; host or cells: HEK293T and MDA-MB-231
T2 sequence (Q99538 18-323): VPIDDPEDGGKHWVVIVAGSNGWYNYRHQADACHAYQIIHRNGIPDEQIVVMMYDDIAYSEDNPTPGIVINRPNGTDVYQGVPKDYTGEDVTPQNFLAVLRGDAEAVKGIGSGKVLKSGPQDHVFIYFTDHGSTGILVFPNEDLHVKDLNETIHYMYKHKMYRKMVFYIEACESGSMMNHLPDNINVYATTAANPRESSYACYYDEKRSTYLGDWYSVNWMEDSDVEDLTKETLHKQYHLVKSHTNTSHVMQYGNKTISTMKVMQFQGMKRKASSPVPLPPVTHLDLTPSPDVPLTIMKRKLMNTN
The conditions noted are these: SILAC H/L. As for the experimental part: as §1, §2, §3, §4, §5

For test [2], the target named is T3, SCRN2 Secernin-2 (Q96FV2) (Homo sapiens, UniProt Q96FV2).
T3 construct: shared by both the endogenous and recombinant forms of these proteins; endogenous in cells; host or cells: HEK293T and MDA-MB-231
Conditions: SILAC H/L, HEK293T. The protocol: as §1, §2, §3, §4, §5

Test [3] addresses T4, SCRN3 Secernin-3 (Q0VDG4) (Homo sapiens, UniProt Q0VDG4).
T4 construct: shared by both the endogenous and recombinant forms of these proteins; endogenous in cells; host or cells: HEK293T and MDA-MB-231
T4 sequence (Q0VDG4 6-424): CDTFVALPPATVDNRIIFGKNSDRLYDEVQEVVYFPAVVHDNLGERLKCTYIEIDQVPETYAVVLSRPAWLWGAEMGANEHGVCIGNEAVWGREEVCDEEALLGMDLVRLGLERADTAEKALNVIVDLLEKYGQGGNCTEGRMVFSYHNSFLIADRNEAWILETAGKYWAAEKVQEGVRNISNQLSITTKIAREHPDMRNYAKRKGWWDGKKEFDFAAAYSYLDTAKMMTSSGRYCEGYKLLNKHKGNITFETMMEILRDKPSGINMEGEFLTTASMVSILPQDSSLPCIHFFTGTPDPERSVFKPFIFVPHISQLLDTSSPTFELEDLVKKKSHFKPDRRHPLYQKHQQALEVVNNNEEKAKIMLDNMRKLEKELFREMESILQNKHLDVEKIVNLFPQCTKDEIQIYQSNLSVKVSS
Conditions: SILAC H/L, HEK293T. The protocol:
as §1, §2, §3, §4, §5

Take `C#CCNN.Cl` [probe 1, prop-2-yn-1-ylhydrazine hydrochloride]: the enrichment ratioavg in test [1] (probe 1 3 mM 0.5 h vs probe 3) was 20; on LGMN Legumain (Q99538) (probe 1 3 mM 0.5 h vs probe 3, HEK293T), 20; in test [2] (probe 1 3 mM 0.5 h vs probe 3), 20; in test [3] (probe 1 3 mM 0.5 h vs probe 3), 20. Further, the competition ratioavg in test [1] (probe 1 vs probe 1+10x probe 3) amounted to 5; on LGMN Legumain (Q99538) (probe 1 vs probe 1+10x probe 3, HEK293T), 18; in test [2] (probe 1 vs probe 1+10x probe 3), 9; in test [3] (probe 1 vs probe 1+10x probe 3), 6.

Consider `C#CCCNC(=O)c1ccc(NN)cc1.Cl` [probe 2, N-(but-3-yn-1-yl)-4-hydrazinylbenzamide hydrochloride], for which the enrichment ratioavg is 20 in test [1] (probe 2 1 mM 0.5 h vs probe 4); 20 at LGMN Legumain (Q99538) (probe 2 1 mM 0.5 h vs probe 4, MDA-MB-231); 20 in test [2] (probe 2 1 mM 0.5 h vs probe 4); 15 in test [3] (probe 2 1 mM 0.5 h vs probe 4). Moreover, the competition ratioavg in test [1] (probe 2 vs probe 2+10x probe 4) came to 6; at LGMN Legumain (Q99538) (probe 2 vs probe 2+10x probe 4, MDA-MB-231) it was 4; in test [2] (probe 2 vs probe 2+10x probe 4) it was 13; in test [3] (probe 2 vs probe 2+10x probe 4), 16.
